Measurements from ChEMBL document CHEMBL2363022, “Malaria Box Schistosomiasis Screening Data” (2013).

What was measured:
Assay type in all cases: functional
Set-up in all cases: scale not given here
[1] = tested on: Schistosoma mansoni
[2] = tested on: Schistosoma mansoni; remark: listed apart in the source
[3] = tested on: Schistosoma mansoni; remark: listed apart in the source

SMILES	Toxicity [1]	Toxicity [2]	Toxicity [3]
CC(=O)NCCc1nc2ccccc2n1Cc1ccc(C(C)C)cc1	0	0	0
Cc1cc(Nc2ccc(OCc3ccccc3)cc2)nc2cc(O)ccc12	4	2	3
COc1ccc(C=C2SC(Nc3ccc(F)cc3)=NC2=O)c(OC)c1	0	0	0
COc1cccc(-c2nn(C)c3sc(C(=O)NCCN4CCN(c5ccccc5F)CC4)cc23)c1	3	0	0
CN1CCN(c2nc(Nc3ccc(O)cc3)nc3ccccc23)CC1.Cl	0	0	0
CCN1CCN(c2c(C(=O)c3ccccc3)cnc3cc(OC)c(OC)cc23)CC1	0	0	0
CC(=O)c1sc(NC(=O)Nc2ccc(C)cc2C)nc1C	0	0	0
COc1ccc(C2Sc3ccccc3N=C3C2=C(O)c2ccccc23)cc1 (stereo not given)	0	0	0
COc1nc(Nc2ccc(C(C)C)cc2)nc(OC)n1	0	0	0
CCOc1cc2c(cc1OCC)C(c1cc(Cl)ccc1O)NCC2 (stereo not given)	0	0	1
Cc1ccc(OCCCCCCNCCO)c(C)c1	0	0	0
CCCN(CCC)CCCNC(=O)c1cc2c(-c3ccc(OC)c(OC)c3)nn(C)c2s1	3	0	0
CCN(CC)c1ccc(NC(=O)c2cccs2)cc1	0	0	0
COc1ccc2nc(C)cc(Nc3ccccc3O)c2c1	0	0	0
CCOc1cc(Br)c(C(C)NC(=O)c2cccc(OC)c2)cc1OCC (stereo not given)	0	0	0
CSc1ccccc1C(=O)Nc1nc(-c2ccccn2)cs1	0	0	0
Cc1cc(Nc2ccc3ccccc3c2)n2ncnc2n1	1	0	1
CC(O)(c1ccc(Cl)cc1)C(CN1CCCCC1)c1ccccc1.Cl (stereo not given)	0	0	0

SMILES	Toxicity [1]	Toxicity [2]	Toxicity [3]
COc1ccc(N2CCN(C(CNC(=O)C3CCCCC3)c3ccc4c(c3)OCO4)CC2)cc1 (stereo not given)	0	0	0
CCN(Cc1ccccc1)C1CCN(Cc2cc(Br)ccc2O)CC1.O=C(O)C(=O)O	0	0	0
Cc1cccc(N2C(=O)C3C(C2=O)C2(c4ccccc4)C(=O)C3(c3ccccc3)C(c3ccc4c(c3)OCO4)=C2c2ccc3c(c2)OCO3)c1 (stereo not given)	0	0	0
CCOC(=O)c1cn(CC)c2cc(N(C)CCc3ccc(OC)c(OC)c3)c(F)cc2c1=O	0	0	0
CCCC(c1nnnn1C1CCCCC1)N1CCN(C(=O)c2ccco2)CC1.Cl (stereo not given)	0	0	0
O=C(NCC(c1ccsc1)N1CCCCCC1)c1ccc(C(F)(F)F)cc1 (stereo not given)	0	0	0
COc1ccccc1C(=O)ON=C(N)Cc1cccc2ccccc12	3	1	3
COc1cc2cc(C(=O)Nc3ccccc3)c(N)nc2cc1OC	2	0	0
O=[N+]([O-])c1ccc(C=NNc2nc3ccccc3[nH]2)cc1	0	0	1
O=C(CCl)NCCOc1ccc(Cl)cc1Cl	4	0	3
OC1CCCCC1C1(NC(=S)Nc2ccccc2)CCCCC1 (stereo not given)	0	0	0
Cc1ccc(N2C(=O)C3C(C2=O)C2(c4ccccc4)C(=O)C3(c3ccccc3)C(c3ccccc3)=C2c2ccccc2)cc1 (stereo not given)	1	1	1
COc1ccc(C(=O)Nc2ccc(Cl)cc2C(=O)Nc2ccncc2)cc1	0	0	0
N=c1c2ccccc2nnn1-c1cccc(C(F)(F)F)c1	0	0	0
Cn1c(C(=O)c2cccc3ccccc23)nc2ccccc21	0	0	0
CC(C)CNC(=O)c1c(N)n(CCc2ccccc2F)c2nc3ccccc3nc12	2	0	2
CCOC(=O)c1cnc2ccc(OC)cc2c1NCc1ccccc1	1	1	0
